The values below come from publication PMC3340383, “Synthesis and Evaluation of a Series of 2-Substituted-5-Thiopropylpiperazine (Piperidine)-1,3,4-Oxadiazoles Derivatives as Atypical Antipsychotics” (PLoS ONE, 2012).

Marks after values point to notes of the source that are not given here. Bounds are passed on as bounds.

One may read the Ki as the dissociation constant of the complex between target and ligand, obtained from inhibition or displacement.

One assay deals with T1, dopamine D2 receptor (Rattus norvegicus, UniProt P61169).
T1 construct: Rat striatum was homogenized in 20 volumes of ice-cold 50 mM Tris-HCl buffer; from tissue; host or cells: rat striatum
The experiment in a line: D2 dopaminergic binding assay ([3H]spiperone, rat striatum). The following applies: [3H]spiperone, rat striatum; mean of three experiments; >10000 marked b: Ki not calculated, inhibition at 10 µM too low; read-out: Ki±SEM, D2. The procedure:
(§1) All the new compounds were dissolved in 5% DMSO. The following specific radioligands and tissue sources were used: (a) serotonin 5-HT1A receptor, [^3H]8-OH-DPAT, rat brain cortex; (b) serotonin 5-HT2A receptor, [^3H]ketanserin, rat brain cortex; (c) serotonin 5-HT2C receptor, [^3H]mesulergine, rat brain cortex; (d) dopamine D2 receptor, [^3H]spiperone, rat striatum; (e) dopamine D3 receptor, [^3H]spiperone, rat olfactory tubercle (f) histamine H1 receptor, [^3H] pyrilamine, guinea pig cerebellum.
(§2) Total binding was determined in the absence of no-specific binding and compounds. Specific binding was determined in the presence of compounds. Non-specific binding was determined as the difference between total and specific binding.
(§3) Percentage of inhibition (%) = (total binding − specific binding)×100%/(total binding − nonspecific binding).
(§4) Ki values were calculated based on the Cheng and Prussoff equation: Ki = IC50/(1+C/Kd) where C represents the concentration of the hot ligand used and Kd its receptor dissociation constant were calculated for each labeled ligand. Mean Ki values and SEM were reported for at least three independent experiments.
Rat striatum was homogenized in 20 volumes of ice-cold 50 mM Tris-HCl buffer (pH 7.7) using an ULTRA TURAX homogeniser, and centrifuged twice for 10 min at 48,000 g with resuspension of the pellet in fresh buffer. The final pellet was resuspended in 50 mM ice-cold Tris-HCl containing 120 mM NaCl, 5 mM KCl, 2 mM CaCl2, 1 mM MgCl2, 0.1% ascorbic acid and 5 µM pargyline.
Total binding each assay tube was added 900 µL of the tissue suspension, 50 µL of 0.5 nM [^3H]spiperone (16.2 Ci/mmol; Perkin Elmer Life Sciences, Boston, MA, USA), 50 µL Tris-HCl buffer containing 120 mM NaCl, 5 mM KCl, 2 mM CaCl2, 1 mM MgCl2, 0.1% ascorbic acid and 5 µM pargyline.
Non-specific binding each assay tube was added 900 µL of the tissue suspension, 50 µL of 0.5 nM [^3H]spiperone, 50 µL of 10 µM (+)-butaclamol.
Specific binding each assay tube was added 900 µL of the tissue suspension, 50 µL of 0.5 nM [^3H]spiperone, 50 µL of new compounds or reference drug.
(§5) The incubation was followed by a rapid vacuum filtration through Whatman GF/B glass filters, and the filtrates were washed twice with 5 mL cold buffer and transferred to scintillation vials. Scintillation fluid (3.0 mL) was added and the radioactivity bound was measured using a Beckman LS 6500 liquid scintillation counter.

The target in a further assay is T2, dopamine D3 receptor (Rattus norvegicus, UniProt P19020).
T2 construct: Rat olfactory tubercle was homogenized in 20 volumes of ice-cold 50 mM Hepes Na; from tissue; host or cells: rat olfactory tubercle
The experiment in a line: D3 dopaminergic binding assay ([3H]spiperone, rat olfactory tubercle). The following applies: mean of three experiments, read-out: Ki±SEM, D3. The procedure: as §1, §2, §3, §4, §5

Assay [1] addresses T3, serotonin 5-HT2C receptor (Rattus norvegicus, UniProt P08909).
T3 construct: Rat cerebral cortex was homogenized in 20 volumes of ice-cold Tris-HCl buffer; from tissue; host or cells: rat brain (cerebral) cortex
T3 sequence (P08909 33-460): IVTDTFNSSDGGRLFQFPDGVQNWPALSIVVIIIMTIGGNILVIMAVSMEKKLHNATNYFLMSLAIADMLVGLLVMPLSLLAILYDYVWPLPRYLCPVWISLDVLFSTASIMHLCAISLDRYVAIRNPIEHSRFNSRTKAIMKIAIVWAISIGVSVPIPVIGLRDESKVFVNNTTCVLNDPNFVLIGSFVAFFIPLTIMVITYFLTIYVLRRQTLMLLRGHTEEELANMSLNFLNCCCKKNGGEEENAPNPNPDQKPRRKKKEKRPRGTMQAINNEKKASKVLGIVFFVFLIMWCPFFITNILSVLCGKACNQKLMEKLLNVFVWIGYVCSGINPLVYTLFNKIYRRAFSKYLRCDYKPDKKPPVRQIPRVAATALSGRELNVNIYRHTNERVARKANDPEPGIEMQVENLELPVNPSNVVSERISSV
The experiment in a line: 5-HT2C binding assay ([3H]mesulergine, rat brain cortex). To be noted: mean of three experiments, read-out: Ki±SEM, 5HT2C. The procedure: as §1
Total binding was determined in the absence of no-specific binding and compounds. Specific binding was determined in the presence of compounds. Non-specific binding was determined as the difference between total and specific binding. […]
Ki values were calculated based on the Cheng and Prussoff equation: Ki = IC50/(1+C/Kd) where C represents the concentration of the hot ligand used and Kd its receptor dissociation constant were calculated for each labeled ligand. […]
The resulting pellet was resuspended in the same quantity of the buffer centrifuged for 20 min. […]
as §5

Another assay addresses T4, histamine H1 receptor (Cavia porcellus, UniProt P31389).
T4 construct: Guinea pig cerebellum was homogenized in 20 volumes of ice-cold 50 mM phosphate buffer; from tissue; host or cells: guinea pig cerebellum
The experiment in a line: Histamine H1 binding assay ([3H]pyrilamine, guinea pig cerebellum). The following applies: [3H]pyrilamine, guinea pig cerebellum; mean of three experiments; >10000 marked b: Ki not calculated, inhibition at 10 µM too low; read-out: Ki±SEM, H1. The procedure:
as §1, §2, §3, §4, §5

Assay [2] deals with apomorphine-induced climbing behavior in mice. The experiment in a line: Apomorphine-induced climbing. Type of assay: in vivo. To be noted: mice, po; 95% confidence limits in parentheses. The procedure:
. […] . Animals were then challenged at 30 minutes post-injection with 1.0 mg/kg of the apomorphine in 0.9% NaCl+0.1% ascorbic acid, placed in cylindrical wire cages (12 cm in diameter, 14 cm in height), and observed for climbing behavior at 10, 20 and 30 min post dose. The climbing behaviour was scored as follows: 3–4 paws on the cage floor = 0 score; 2 and 3 paws on the cage = 1 score; 4 paws on the cage = 2 score.

T4 sequence (P31389 whole entry): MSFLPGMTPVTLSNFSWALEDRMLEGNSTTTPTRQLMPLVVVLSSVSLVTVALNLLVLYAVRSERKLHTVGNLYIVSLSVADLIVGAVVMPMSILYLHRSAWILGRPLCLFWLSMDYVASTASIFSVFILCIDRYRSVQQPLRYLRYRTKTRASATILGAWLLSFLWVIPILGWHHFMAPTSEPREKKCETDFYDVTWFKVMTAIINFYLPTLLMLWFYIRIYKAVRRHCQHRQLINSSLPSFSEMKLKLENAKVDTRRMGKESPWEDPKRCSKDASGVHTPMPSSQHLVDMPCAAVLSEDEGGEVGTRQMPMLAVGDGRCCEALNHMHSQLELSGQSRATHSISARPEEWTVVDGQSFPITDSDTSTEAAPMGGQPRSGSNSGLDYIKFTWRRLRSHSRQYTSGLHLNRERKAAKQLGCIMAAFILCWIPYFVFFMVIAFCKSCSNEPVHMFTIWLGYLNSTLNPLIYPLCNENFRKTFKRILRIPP
T1 sequence (P61169 whole entry): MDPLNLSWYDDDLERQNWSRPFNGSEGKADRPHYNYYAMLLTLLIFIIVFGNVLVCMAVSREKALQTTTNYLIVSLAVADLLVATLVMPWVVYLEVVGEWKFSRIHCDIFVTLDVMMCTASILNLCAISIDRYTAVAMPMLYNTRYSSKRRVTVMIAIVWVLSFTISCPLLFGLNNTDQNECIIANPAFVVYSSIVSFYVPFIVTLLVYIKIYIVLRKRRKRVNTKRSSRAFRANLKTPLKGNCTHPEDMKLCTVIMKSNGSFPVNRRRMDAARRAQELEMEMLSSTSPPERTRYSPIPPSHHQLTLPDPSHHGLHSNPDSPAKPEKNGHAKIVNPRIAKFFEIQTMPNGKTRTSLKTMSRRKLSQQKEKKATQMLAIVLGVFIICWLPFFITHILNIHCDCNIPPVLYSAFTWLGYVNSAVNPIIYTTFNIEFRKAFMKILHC
T2 sequence (P19020 whole entry): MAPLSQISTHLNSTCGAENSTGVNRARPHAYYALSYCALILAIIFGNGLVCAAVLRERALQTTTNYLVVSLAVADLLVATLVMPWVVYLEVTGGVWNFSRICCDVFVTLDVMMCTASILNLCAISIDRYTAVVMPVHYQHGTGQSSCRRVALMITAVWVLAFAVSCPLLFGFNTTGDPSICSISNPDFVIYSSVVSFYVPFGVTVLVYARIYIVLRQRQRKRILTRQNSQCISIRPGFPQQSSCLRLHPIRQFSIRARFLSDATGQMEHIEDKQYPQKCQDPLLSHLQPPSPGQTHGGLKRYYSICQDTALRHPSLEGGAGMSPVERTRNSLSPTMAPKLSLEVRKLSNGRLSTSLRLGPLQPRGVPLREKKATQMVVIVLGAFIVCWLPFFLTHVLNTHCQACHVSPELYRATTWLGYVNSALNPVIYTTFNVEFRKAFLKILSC

As to `Fc1ccc2c(C3CCN(CCCSc4nnc(-c5cccc6ccccc56)o4)CC3)noc2c1` [Compound 22, 2-(3-(4-(6-fluorobenzo[d]isoxazol-3-yl)piperidin-1-yl)propylthio)-5-(naphthalen-1-yl)-1,3,4-oxadiazole], the Ki at dopamine D2 receptor was 0.023 ± 0.0026 µM; at dopamine D3 receptor it was 0.0077 ± 0.0006 µM; in assay [1], 0.861 ± 0.0862 µM; on histamine H1 receptor it was greater than 10 µM. Moreover, the “Apomorphine-induced climbing ED50 (A)” value in assay [2] was 3.68 (2.79–4.86) ^a mg/kg.
